We go through one compound from patent publication US20170072033A1, “LIPOSOMAL COMPOSITIONS FOR MUCOSAL DELIVERY” (GlaxoSmithKline Biologicals, SA, priority 2014, published 2017).

The data set in a line: Rabbit pyrogen test. Conditions: ng CRX-601/kg animal body weight. The protocol:
The test was performed at Pacific Biolabs (Hercules, Calif.) as per their SOP 16E-02, which follows procedures outlined in USP<151>.

Consider `CCCCCCCCCCC[C@H](CC(=O)N[C@H]1[C@H](OC[C@H](NC(=O)C[C@@H](CCCCCCCCCCC)OCCCCCCCCCC)C(=O)O)O[C@H](CO)[C@@H](OP(=O)(O)O)[C@@H]1OC(=O)C[C@@H](CCCCCCCCCCC)OCCCCCCCCCC)OCCCCCCCCCC` [CRX-601], for which the max non-pyrogenic dose was determined as 2.5 ng/kg.
